Measured values published in publication PMC10304372, “T-705-Derived Prodrugs Show High Antiviral Efficacies against a Broad Range of Influenza A Viruses with Synergistic Effects When Combined with Oseltamivir” (Pharmaceutics, 2023).
Where two headings read alike, the source gives them in different places.

Experiments:
[1] = system: A/Vietnam/1194/04 (H5N1); experiment: microbe, parasite or virus in culture; type: cell-based, influenza A virus; settings: for IC90: read-out: IC90 (90% inhibitory effect on viral replication), H5N1
[2] = system: H5N1 HPAIV; type: cell-based, influenza A virus
[3] = system: A/Hamburg/NY1580/09 (H1N1); experiment: microbe, parasite or virus in culture; type: cell-based, influenza A virus; settings: for IC50: read-out: IC50 H1N1
[4] = system: A/Victoria/03/75 (H3N2); type: cell-based, influenza A virus
[5] = in vitro; settings: dog
[6] = system: MDCKII cells; settings: for concentration from which considerable cell cytotoxicity was caused: dog
[7] = system: A/Anhui/1/13 (H7N9); experiment: microbe, parasite or virus in culture; type: cell-based, influenza A virus; settings: for IC50: read-out: IC50 H7N9
[8] = system: RdRP subunit PA (polymerase acidic protein); settings: cited from earlier work
[9] = Influenza A virus, H5N1, MDCK-II, 24 h, read-out: IC50 H5N1
[10] = Influenza A virus, H5N1, MDCK-II
[11] = Influenza A virus, H1N1, MDCK-II, 24 h
[12] = Influenza A virus, H7N9, MDCK-II, 24 h

| Compound | SI (selectivity index) H5N1 [1] | IC50 [1, 9] [µM] | IC50 ([1]; read-out: IC50 H5N1) [µM] | SI (selectivity index) H1N1 [3] | IC50 [3, 11] [µM] | antiviral activity against H3N2 IAV (in words) [4] | CC50 [5] [µM] | concentration from which considerable cell cytotoxicity was caused [6] [µM] | SI (selectivity index) H7N9 [7] | IC50 [7, 12] [µM] | IC50 [3] [µM] | also measured |
| --- | --- | --- | --- | --- | --- | --- | --- | --- | --- | --- | --- | --- |
| CCCCCCCCCC(=O)Oc1ccc(COP(=O)(OCc2ccc(OC(=O)CCCCCCCCC)cc2)OP(=O)(O)OC[C@H]2O[C@@H](n3ccnc(C(N)=O)c3=O)[C@H](O)[C@@H]2O)cc1 [3a] | 373.7 | 0.22 | 0.224 ± 0.23 | 643.9 | 0.13 ± 0.14 | reduced viral titers to the limit of detection | > 50 | ≥ 30 | 1179.0 | 0.07 | – | IC1 (1% inhibitory effect on viral replication), H5N1 [1]: 0.0005 µM; IC10 (10% inhibitory effect on viral replication), H5N1 [1]: 0.0132 µM; reduction of H5N1 virus titers to the limit of detection (in words) [1]: to the limit of detection; IC50 ([1]; Influenza A virus, H5N1, MDCK-II, read-out: IC50, H5N1, as used for combination treatment): 0.267 µM; IC90 [1, 10]: 5.4 µM; interaction with oseltamivir against H5N1 (in words) [2]: strong synergistic effect; increase in antiviral activity compared to 1a (T-705), H1N1 [3]: 10 fold; more active than 1a against H7N9 [7]: 10 fold; reduction of H7N9 virus titers to the limit of detection (in words) [7]: to the limit of detection; IC50 [7]: 0.071 ± 0.09 µM |
| CCOC(=O)C1=C[C@@H](OC(CC)CC)[C@H](NC(C)=O)[C@@H](N)C1 [oseltamivir] | – | – | – | – | – | – | > 100 | – | – | – | – | IC1 (1% inhibitory effect on viral replication), H5N1 [1]: 0.00002 µM; IC10 (10% inhibitory effect on viral replication), H5N1 [1]: 0.0005 µM; IC50 ([1]; Influenza A virus, H5N1, MDCK-II, 24 h, read-out: IC50 H5N1 (oseltamivir)): 0.008 µM; IC90 [1, 10]: 0.127 µM |
| O=C1c2c(O)c(=O)ccn2N([C@@H]2c3ccccc3SCc3c2ccc(F)c3F)[C@@H]2COCCN12 [Baloxavir, baloxavir] | – | – | – | – | – | – | – | – | – | – | – | inhibitory activity on PA of various IAV subtypes incl. H5N1 and H7N9 (in words) [8]: pico- to nanomolar activity |
| CCCCCCCCCC(=O)Oc1ccc(COP(=O)(OCc2ccc(OC(=O)CCCCCCCCC)cc2)OP(=O)(O)OP(=O)(O)OC[C@H]2O[C@@H](n3ccnc(C(N)=O)c3=O)[C@H](O)[C@@H]2O)cc1 [4a, T-1106-C9C9-TriPPPro] | 460.2 | 0.31 | 0.314 ± 0.38 | 43.6 | 3.32 | modest reduction in viral replication | > 50 | ≥ 30 | 71.5 | 2.02 ± 1.23 | 3.32 ± 4.41 | antiviral activity against H7N9 compared to 1a (comparable or fold reduced) [7]: 2.5 fold |
| NC(=O)c1nc(F)c[nH]c1=O [1a, T-705] | – | 1.14 | 1.14 ± 1.17 | – | 1.29 | – | > 50 | – | – | 0.79 ± 0.54 | 1.29 ± 1.4 | reduction of virus replication [4]: approximately 1.5 logs; effect on cell viability (in words) [6]: did not affect cell viability |
| CCCCCCCCCCCCCCC(=O)Oc1ccc(COP(=O)(OCc2ccc(OC(=O)CCCC)cc2)OP(=O)(O)OC[C@H]2O[C@@H](n3ccnc(C(N)=O)c3=O)[C@H](O)[C@@H]2O)cc1 (stereo partly drawn) [3b] | 850.9 | 0.12 | 0.116 ± 0.013 | 66.4 | 1.49 | reduced viral titers to the limit of detection | > 50 | ≥ 30 | 158.2 | 0.62 | 1.49 ± 2.36 | reduction of H5N1 virus titers to the limit of detection (in words) [1]: to the limit of detection; antiviral activity against H7N9 compared to 1a (comparable or fold reduced) [7]: comparable; reduction of H7N9 virus titers to the limit of detection (in words) [7]: to the limit of detection; IC50 [7]: 0.624 ± 1.04 µM |
| NC(=O)c1ncc[nH]c1=O [1b, T-1105, reference compound] | – | – | – | – | – | – | – | – | – | – | – | reduction of virus replication [4]: approximately 1.5 logs |
| NC(=O)c1nccn([C@@H]2O[C@H](CO)[C@@H](O)[C@H]2O)c1=O [2a, T-1106] | – | – | – | – | – | slightly higher activity compared to T-1105 1b | – | – | – | – | – | – |
